# Like-named read-outs stand apart in the source and are kept apart here.
# Test system: de novo fatty acid synthesis
# [1] = Liver, CE, mean of treated mice
# [2] = Liver, FFA, mean of treated mice
# [3] = Liver, PC, mean of treated mice
# [4] = Liver, PS/I, mean of treated mice
# [5] = Liver, TAG, mean of treated mice
# [6] = Plasma, CE, mean of treated mice
# [7] = Plasma, FFA, mean of treated mice
# [8] = Plasma, PC, mean of treated mice
# [9] = Plasma, PL, mean of treated mice
# [10] = Plasma, TAG, mean of treated mice
structure (smiles),measurement,setting,value
CN(CCOc1ccc(CC2SC(=O)NC2=O)cc1)c1ccccn1 (stereo not drawn) [rosiglitazone],18:0,[1],204.4 nanomoles per gram
same,18:1n7,[1],138.6 nanomoles per gram
same,18:1n9,[1],1208.0 nanomoles per gram
same,Saturates,[1],3147.2 nanomoles per gram
same,Total n7,[1],817.0 nanomoles per gram
same,Total n9,[1],1239.5 nanomoles per gram
same,Total nMole of,[1],5830.7 nanomoles per gram
same,14:0,"Liver, CL, mean",0.5 percentage of total fatty acids within each lipid class
same,16:0,"Liver, CL, mean",5.7 percentage of total fatty acids within each lipid class
same,16:1n7,"Liver, CL, mean",6.3 percentage of total fatty acids within each lipid class
same,18:0,"Liver, CL, mean",3.6 percentage of total fatty acids within each lipid class
same,18:1n7,"Liver, CL, mean",5.5 percentage of total fatty acids within each lipid class
same,18:1n9,"Liver, CL, mean",10.0 percentage of total fatty acids within each lipid class
same,Saturates,"Liver, CL, mean",10.6 percentage of total fatty acids within each lipid class
same,Total,"Liver, CL, mean",100.0 percentage of total fatty acids within each lipid class
same,Total n7,"Liver, CL, mean",11.8 percentage of total fatty acids within each lipid class
same,Total n9,"Liver, CL, mean",10.5 percentage of total fatty acids within each lipid class
same,14:0,"Liver, FFA, mean",1.0 percentage of total fatty acids within each lipid class
same,16:0,"Liver, FFA, mean",19.9 percentage of total fatty acids within each lipid class
same,16:1n7,"Liver, FFA, mean",9.4 percentage of total fatty acids within each lipid class
same,18:0,"Liver, FFA, mean",3.0 percentage of total fatty acids within each lipid class
same,18:1n7,"Liver, FFA, mean",6.4 percentage of total fatty acids within each lipid class
same,18:1n9,"Liver, FFA, mean",25.4 percentage of total fatty acids within each lipid class
same,Saturates,"Liver, FFA, mean",24.4 percentage of total fatty acids within each lipid class
same,Total,"Liver, FFA, mean",100.0 percentage of total fatty acids within each lipid class
same,Total n7,"Liver, FFA, mean",15.8 percentage of total fatty acids within each lipid class
same,Total n9,"Liver, FFA, mean",26.0 percentage of total fatty acids within each lipid class
same,14:0,[2],236.5 nanomoles per gram
same,16:0,[2],4507.0 nanomoles per gram
same,16:1n7,[2],2121.2 nanomoles per gram
same,18:0,[2],691.5 nanomoles per gram
same,18:1n7,[2],1466.0 nanomoles per gram
same,18:1n9,[2],5761.2 nanomoles per gram
same,Saturates,[2],5541.5 nanomoles per gram
same,Total n7,[2],3587.3 nanomoles per gram
same,Total n9,[2],5909.9 nanomoles per gram
same,Total nMole of,[2],22631.3 nanomoles per gram
same,14:0,"Liver, PC, mean",0.2 percentage of total fatty acids within each lipid class
same,16:0,"Liver, PC, mean",33.3 percentage of total fatty acids within each lipid class
same,16:1n7,"Liver, PC, mean",1.7 percentage of total fatty acids within each lipid class
same,18:0,"Liver, PC, mean",10.3 percentage of total fatty acids within each lipid class
same,18:1n7,"Liver, PC, mean",4.6 percentage of total fatty acids within each lipid class
same,18:1n9,"Liver, PC, mean",9.6 percentage of total fatty acids within each lipid class
same,Saturates,"Liver, PC, mean",44.1 percentage of total fatty acids within each lipid class
same,Total,"Liver, PC, mean",100.0 percentage of total fatty acids within each lipid class
same,Total n7,"Liver, PC, mean",6.4 percentage of total fatty acids within each lipid class
same,Total n9,"Liver, PC, mean",10.2 percentage of total fatty acids within each lipid class
same,14:0,[3],43.2 nanomoles per gram
same,16:0,[3],9572.4 nanomoles per gram
same,16:1n7,[3],501.3 nanomoles per gram
same,18:0,[3],2975.6 nanomoles per gram
same,18:1n7,[3],1329.1 nanomoles per gram
same,18:1n9,[3],2767.4 nanomoles per gram
same,Saturates,[3],12686.5 nanomoles per gram
same,Total n7,[3],1830.5 nanomoles per gram
same,Total n9,[3],2932.3 nanomoles per gram
same,Total nMole of,[3],14390.8 nanomoles per gram
same,14:0,"Liver, PS/I, mean",0.2 percentage of total fatty acids within each lipid class
same,16:0,"Liver, PS/I, mean",11.1 percentage of total fatty acids within each lipid class
same,16:1n7,"Liver, PS/I, mean",0.7 percentage of total fatty acids within each lipid class
same,18:0,"Liver, PS/I, mean",32.3 percentage of total fatty acids within each lipid class
same,18:1n7,"Liver, PS/I, mean",2.9 percentage of total fatty acids within each lipid class
same,18:1n9,"Liver, PS/I, mean",6.7 percentage of total fatty acids within each lipid class
same,Saturates,"Liver, PS/I, mean",44.2 percentage of total fatty acids within each lipid class
same,Total,"Liver, PS/I, mean",100.0 percentage of total fatty acids within each lipid class
same,Total n7,"Liver, PS/I, mean",3.6 percentage of total fatty acids within each lipid class
same,Total n9,"Liver, PS/I, mean",8.2 percentage of total fatty acids within each lipid class
same,14:0,[4],18.9 nanomoles per gram
same,16:0,[4],1158.5 nanomoles per gram
same,16:1n7,[4],76.0 nanomoles per gram
same,18:0,[4],3348.9 nanomoles per gram
same,18:1n7,[4],303.2 nanomoles per gram
same,18:1n9,[4],693.2 nanomoles per gram
same,Saturates,[4],4590.1 nanomoles per gram
same,Total n7,[4],379.2 nanomoles per gram
same,Total n9,[4],854.3 nanomoles per gram
same,Total nMole of,[4],5196.5 nanomoles per gram
same,14:0,"Liver, TAG, mean",0.5 percentage of total fatty acids within each lipid class
same,16:0,"Liver, TAG, mean",27.1 percentage of total fatty acids within each lipid class
same,16:1n7,"Liver, TAG, mean",8.1 percentage of total fatty acids within each lipid class
same,18:0,"Liver, TAG, mean",0.6 percentage of total fatty acids within each lipid class
same,18:1n7,"Liver, TAG, mean",5.8 percentage of total fatty acids within each lipid class
same,18:1n9,"Liver, TAG, mean",39.6 percentage of total fatty acids within each lipid class
same,Saturates,"Liver, TAG, mean",28.6 percentage of total fatty acids within each lipid class
same,Total,"Liver, TAG, mean",100.0 percentage of total fatty acids within each lipid class
same,Total n7,"Liver, TAG, mean",13.9 percentage of total fatty acids within each lipid class
same,Total n9,"Liver, TAG, mean",40.5 percentage of total fatty acids within each lipid class
same,14:0,[5],2450.8 nanomoles per gram
same,16:0,[5],122013.9 nanomoles per gram
same,16:1n7,[5],36411.0 nanomoles per gram
same,18:0,[5],2665.4 nanomoles per gram
same,18:1n7,[5],26279.6 nanomoles per gram
same,18:1n9,[5],179035.8 nanomoles per gram
same,Saturates,[5],129102.3 nanomoles per gram
same,Total n7,[5],62690.6 nanomoles per gram
same,Total n9,[5],183105.4 nanomoles per gram
same,Total nMole of,[5],150412.8 nanomoles per gram
same,14:0,"Plasma, CE, mean",0.6 percentage of total fatty acids within each lipid class
same,16:0,"Plasma, CE, mean",3.7 percentage of total fatty acids within each lipid class
same,16:1n7,"Plasma, CE, mean",6.5 percentage of total fatty acids within each lipid class
same,18:0,"Plasma, CE, mean",0.2 percentage of total fatty acids within each lipid class
same,18:1n7,"Plasma, CE, mean",0.7 percentage of total fatty acids within each lipid class
same,18:1n9,"Plasma, CE, mean",6.1 percentage of total fatty acids within each lipid class
same,Saturates,"Plasma, CE, mean",4.9 percentage of total fatty acids within each lipid class
same,Total,"Plasma, CE, mean",100.0 percentage of total fatty acids within each lipid class
same,Total n7,"Plasma, CE, mean",7.3 percentage of total fatty acids within each lipid class
same,Total n9,"Plasma, CE, mean",6.6 percentage of total fatty acids within each lipid class
same,14:0,[6],16.8 nanomoles per gram
same,16:0,[6],113.0 nanomoles per gram
same,16:1n7,[6],200.8 nanomoles per gram
same,18:0,[6],7.1 nanomoles per gram
same,18:1n7,[6],22.7 nanomoles per gram
same,18:1n9,[6],189.1 nanomoles per gram
same,Saturates,[6],148.8 nanomoles per gram
same,Total n7,[6],223.4 nanomoles per gram
same,Total n9,[6],202.2 nanomoles per gram
same,Total nMole of,[6],3058.7 nanomoles per gram
same,14:0,"Plasma, FFA, mean",3.3 percentage of total fatty acids within each lipid class
same,16:0,"Plasma, FFA, mean",30.9 percentage of total fatty acids within each lipid class
same,16:1n7,"Plasma, FFA, mean",8.3 percentage of total fatty acids within each lipid class
same,18:0,"Plasma, FFA, mean",8.1 percentage of total fatty acids within each lipid class
same,18:1n7,"Plasma, FFA, mean",3.2 percentage of total fatty acids within each lipid class
same,18:1n9,"Plasma, FFA, mean",18.4 percentage of total fatty acids within each lipid class
same,Saturates,"Plasma, FFA, mean",43.8 percentage of total fatty acids within each lipid class
same,Total,"Plasma, FFA, mean",100.0 percentage of total fatty acids within each lipid class
same,Total n9,"Plasma, FFA, mean",18.9 percentage of total fatty acids within each lipid class
same,14:0,[7],15.9 nanomoles per gram
same,16:0,[7],148.4 nanomoles per gram
same,16:1n7,[7],41.4 nanomoles per gram
same,18:0,[7],37.3 nanomoles per gram
same,18:1n7,[7],15.2 nanomoles per gram
same,18:1n9,[7],90.2 nanomoles per gram
same,Saturates,[7],208.8 nanomoles per gram
same,Total n7,[7],56.7 nanomoles per gram
same,Total n9,[7],92.7 nanomoles per gram
same,Total nMole of,[7],478.4 nanomoles per gram
same,14:0,"Plasma, PC, mean",0.1 percentage of total fatty acids within each lipid class
same,16:0,"Plasma, PC, mean",30.8 percentage of total fatty acids within each lipid class
same,16:1n7,"Plasma, PC, mean",0.8 percentage of total fatty acids within each lipid class
same,18:0,"Plasma, PC, mean",13.0 percentage of total fatty acids within each lipid class
same,18:1n7,"Plasma, PC, mean",4.1 percentage of total fatty acids within each lipid class
same,18:1n9,"Plasma, PC, mean",9.4 percentage of total fatty acids within each lipid class
same,Saturates,"Plasma, PC, mean",44.6 percentage of total fatty acids within each lipid class
same,Total,"Plasma, PC, mean",100.0 percentage of total fatty acids within each lipid class
same,Total n7,"Plasma, PC, mean",4.9 percentage of total fatty acids within each lipid class
same,Total n9,"Plasma, PC, mean",9.9 percentage of total fatty acids within each lipid class
same,14:0,[8],5.7 nanomoles per gram
same,16:0,[8],1246.9 nanomoles per gram
same,16:1n7,[8],34.2 nanomoles per gram
same,18:0,[8],528.9 nanomoles per gram
same,18:1n7,[8],164.8 nanomoles per gram
same,18:1n9,[8],383.4 nanomoles per gram
same,Saturates,[8],1804.9 nanomoles per gram
same,Total n7,[8],199.0 nanomoles per gram
same,Total n9,[8],405.1 nanomoles per gram
same,Total nMole of,[8],2027.9 nanomoles per gram
same,14:0,"Plasma, PL, mean",0.2 percentage of total fatty acids within each lipid class
same,16:0,"Plasma, PL, mean",30.9 percentage of total fatty acids within each lipid class
same,16:1n7,"Plasma, PL, mean",0.9 percentage of total fatty acids within each lipid class
same,18:0,"Plasma, PL, mean",11.9 percentage of total fatty acids within each lipid class
same,18:1n7,"Plasma, PL, mean",3.9 percentage of total fatty acids within each lipid class
same,18:1n9,"Plasma, PL, mean",7.4 percentage of total fatty acids within each lipid class
same,Saturates,"Plasma, PL, mean",43.9 percentage of total fatty acids within each lipid class
same,Total,"Plasma, PL, mean",100.0 percentage of total fatty acids within each lipid class
same,Total n7,"Plasma, PL, mean",4.8 percentage of total fatty acids within each lipid class
same,Total n9,"Plasma, PL, mean",8.7 percentage of total fatty acids within each lipid class
same,14:0,[9],7.7 nanomoles per gram
same,16:0,[9],1533.6 nanomoles per gram
same,16:1n7,[9],43.0 nanomoles per gram
same,18:0,[9],604.7 nanomoles per gram
same,18:1n7,[9],195.0 nanomoles per gram
same,18:1n9,[9],384.8 nanomoles per gram
same,Saturates,[9],2191.4 nanomoles per gram
same,Total n7,[9],238.0 nanomoles per gram
same,Total n9,[9],449.9 nanomoles per gram
same,Total nMole of,[9],2496.5 nanomoles per gram
same,14:0,"Plasma, TAG, mean",1.2 percentage of total fatty acids within each lipid class
same,16:0,"Plasma, TAG, mean",21.9 percentage of total fatty acids within each lipid class
same,16:1n7,"Plasma, TAG, mean",7.0 percentage of total fatty acids within each lipid class
same,18:0,"Plasma, TAG, mean",1.8 percentage of total fatty acids within each lipid class
same,18:1n7,"Plasma, TAG, mean",4.5 percentage of total fatty acids within each lipid class
same,18:1n9,"Plasma, TAG, mean",27.2 percentage of total fatty acids within each lipid class
same,Saturates,"Plasma, TAG, mean",25.8 percentage of total fatty acids within each lipid class
same,Total,"Plasma, TAG, mean",100.0 percentage of total fatty acids within each lipid class
same,Total n9,"Plasma, TAG, mean",27.9 percentage of total fatty acids within each lipid class
same,14:0,[10],17.1 nanomoles per gram
same,16:0,[10],315.8 nanomoles per gram
same,16:1n7,[10],102.5 nanomoles per gram
same,18:0,[10],24.9 nanomoles per gram
same,18:1n7,[10],66.1 nanomoles per gram
same,18:1n9,[10],398.8 nanomoles per gram
same,Saturates,[10],368.7 nanomoles per gram
same,Total n7,[10],168.5 nanomoles per gram
same,Total n9,[10],410.2 nanomoles per gram
same,Total nMole of,[10],484.3 nanomoles per gram
